Laboratory results as given in patent US12350317B2, “Immunotherapy for the treatment and prevention of inflammatory bowel disease” (THE UAB RESEARCH FOUNDATION, priority 2019, dated 2025).

Experiments:
[1] = tested on: microbiota flagellin-specific CD4+ T cells; test: Survival, proliferation and cytokine production of flagellin-specific CD4+ T cells from Crohn's patients; settings: for Cytokine production (IFNγ, TNFα and IL-17A) upon re-stimulation: 6-7 hours re-stimulation with APCs and Fla mix
Procedure: (§3) Microbiota flagellin-specific CD4^+ T cells were labeled with proliferation dye and re-stimulated with autologous APCs plus Fla mix in the presence of 50 nM rapamycin, 1 mM metformin, or both. Phosphorylation of S6K was examined after 6 hours of stimulation (H and K), whereas CD4^+ T cell survival (I and L) and proliferation (J and M) were examined after 6-7 days.
Expanded CD154^+ antigen-specific CD4^+ T cells were re-stimulated with autologous APCs and Fla mix, Fla mix with rapamycin, Fla mix with metformin, or Fla mix with rapamycin and metformin for 6-7 hours, with BFA added for the last 4 hours. CD4^+ T cells stimulated with CD3/CD28 beads were used as a positive control, whereas cells with no antigen added were used as a negative control. The cells were then stained for cytokines (TNF and IL-17A), activation of mTOR via the downstream marker phospho-S6K and analyzed by flow cytometry.
(§4) Therefore, in order to target the metabolism of both naïve and memory CD4+ subsets, rapamycin, metformin, or both were tested, for their inhibitory effects on these cells post expansion.

[2] = tested on: CBir1Tg CD4+CD44+ TM cells; test: CBir1Tg CD4+ TM cells co-cultured with APCs and MEP1 in vitro; format: cell-based, mouse
Procedure: (§5) (A) CBir1Tg CD4^+CD44^+ TM cells were isolated from the spleen, labeled with CFSE, and co-cultured with irradiated APCs isolated from C57BL/6 mice in the presence of 1 μg/ml of MEP1, and 100 nM rapamycin, 1 mM metformin, or both. Absolute numbers of live and proliferating CD4^+ T cells post 90 hrs of culturing are shown respectively. OVA p323-339 stimulation was used as negative control. (B) Strategy of adoptive transfer, immunization, and ablation of donor CD4^+ TM cells. […] Mice without challenge and mice treated with 0.2% CMC post challenge were used as controls. Lymphocytes were isolated from the spleen on Day 42 and analyzed with FACS. Representative plots of donor/host CD4^+, donor CD4^+ TM, Treg, and Tfh are shown in (C), whereas statistics of corresponding absolute numbers are shown in (D-G).
(§6) This was tested in vivo by targeting established microbiota antigen-specific CD4+ TM cells in the periphery. […] Upon antigen challenge, on days 28 and 35, recipient mice were treated with metformin, rapamycin, the combination of both, or drug vehicle for 5 consecutive days, respectively. Recipient mice with immunization but no antigen challenge were used as controls (FIG. 10B). Assessed by the absolute numbers recovered from the spleen.

[3] = tested on: donor CBir1Tg CD4+ TM cells; test: Ablation of pre-existing antigen-specific CD4+ TM cells in C57BL/6 mice upon MEP1 challenge; format: in vivo, mouse; settings: rapamycin 1 μg/g/day, metformin 150 μg/g/day i.p. 5 days after MEP1 challenge days 28 and 35; day 42
Procedure: as §5, §6

[4] = tested on: ribosomal protein S6 kinase; test: S6K phosphorylation in flagellin-specific CD4+ T cells from Crohn's patients; format: cell-based, human; settings: re-stimulation with pooled flagellin
Procedure: as §3, §4
Therefore, in order to target the metabolism of both naïve and memory CD4^+ subsets, rapamycin, metformin, or both, were tested for their inhibitory effects on these cells post expansion.

DR0701 (HLA-DR7) = test: Flagellin peptide binding to HLA-DR (DR0701); set-up: species or system human; settings: <20 = high affinity, 20-100 moderate affinity
From the text: (§1) CD4+ T cell effectors mediate colitis in mouse models. These effectors, for example, Th1 and Th17 are short-lived. The CD4+ T cell memory pool is a reservoir of chronicity and regenerating T effector cells. CD4+ TM cells are widely distributed in CBir1 TCR Tg mice (FIG. 1). Flagellin specific T cells can cause murine colitis, mainly Th17 mediated. Anti-CBir1 was detected in 50% of Crohn's patients and in multiple mouse models. The presence of anti-Cbir1 in CD patients is associated with small bowel (SB) involvement, fibrostenosis and internal perforating phenotypes, independent of anti-Saccharomyces cerevisiae antibodies (ASCA), anti-[…] antibodies and anti-OmpC antibodies. A subset of Crohn's patients has broad IgG reactivity to microbiota flagellins (FIG. 2). Flagellins have promiscuous T cell receptor epitopes. Therefore, whether microbiota flagellins contain epitope peptides that are broadly reactive in humans and can stimulate both TM and Tregs across a population of patients with Crohn's disease was studied. Peptides predicted to bind to 8 or more HLA-DRB1 molecules and to mouse H-2^b or H-2^d were studied. Thirty predicted flagellin epitopes were tested for binding to the four most common HLA-DR dimers (HLA-DR3, HLA-DR7, HLA-DR11 and HLA-DR15). All predicted flagellin epitopes bound at least one of the four HLA-DR dimers, and twenty of the predicted epitopes bound two or more.

DR1101 (HLA-DR11) = DR1101 (HLA-DR11) (Homo sapiens, UniProt P01903+P01911, A100R/A169T/A87E/I96F/K41T/L162R/M171V/P40S/Q125H/Q178H/Q39Y/Q99D/R42S/S66Y/T262R/V115G/W38E); test: Flagellin peptide binding to HLA-DR (DR1101); settings: <20 = high affinity, 20-100 moderate affinity
From the text: as §1

DR1501 (HLA-DR15) = DR1501 (HLA-DR15) (Homo sapiens, UniProt P01903+P01911); test: Flagellin peptide binding to HLA-DR (DR1501); settings: <20 = high affinity, 20-100 moderate affinity
From the text: as §1

S6 kinase (S6K) = test: S6K phosphorylation in naive CBir1Tg CD4+ T cells co-cultured with APCs and MEP1; format: cell-based, mouse; settings: 100 nM rapamycin, APCs and MEP1, 20 hrs
Procedure: (§2) CBir1Tg CD4^+CD44-naïve T cells were isolated from the spleen and co-cultured with irradiated antigen-presenting-cells (APCs) isolated from C57BL/6 mice, in the presence of 1 μg/ml of MEP1 with (blue) or without (red) 100 nM rapamycin. Phosphorylation of S6K in CBir1Tg CD4^+ T cells was examined after 20 hrs of stimulation. CBir1Tg CD4^+ T cell viability, uptake of fluorescent glucose analog 2-NBDG, proliferation, and Treg induction were determined with FACS after 90 hrs of co-culture. OVA p323-339 stimulation was used as a negative control (grey). Representative flow plots are shown in (A-D, and I), and statistics of 3 replicated experiments are shown in (E-H, and J). For in vitro and in vivo suppression assays, naïve CD4+ cells were isolated from CBir1Tg·Foxp3gfp spleen and cultured with MEP1 and rapamycin for 6 days for Treg induction. Then live CD4^+CD25^+GFP^+ Treg cells were sorted with flow cytometry as CBir1Tg iTreg Rapa. Live CD4^+CD25^+GFP^+ cells freshly isolated from naïve CBir1Tg·Foxp3gfp spleen were used as control (CBir1Tg tTreg) for suppression assay in vitro. CFSE labeled responder CD4+CD44-(Tn) cells were isolated from congenic CBir1Tg or C57BL/6 mouse and co-cultured with indicated ratios of CBir1Tg Treg cells in the presence of 1 μg/ml MEP1 or anti-mouse-CD3 and APCs for 3.5 days. […]

[5] = tested on: CBir1Tg CD4+CD44- naive T cells; test: Naive CBir1Tg CD4+ T cell glucose uptake, viability, proliferation and Treg induction in vitro; format: cell-based, mouse
Procedure: as §2, with “CBir1Tg CD4^+ T cell viability, uptake of fluorescent glucose analog 2-NBDG, proliferation, and Treg induction were determined with FACS after 90 hrs of co-culture.” left out, “days. Representative graphs of antigen-specific and bystander suppression are shown in (K and M), respectively, and accumulated percentage of suppression are shown in (L and N).” for “days.”

Sequence of DR1101 (HLA-DR11) (P01903 26-254, other chains not shown): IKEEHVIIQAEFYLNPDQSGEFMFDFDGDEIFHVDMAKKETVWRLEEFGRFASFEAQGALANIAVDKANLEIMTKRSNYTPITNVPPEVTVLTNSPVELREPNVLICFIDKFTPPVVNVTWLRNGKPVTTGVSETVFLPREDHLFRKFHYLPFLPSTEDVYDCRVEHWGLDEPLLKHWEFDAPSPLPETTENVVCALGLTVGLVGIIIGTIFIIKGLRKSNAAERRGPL

Compound: CN(C)C(=N)N=C(N)N [metformin]
- Cell death ([1]; 50 nM rapamycin or 1 mM metformin, 6-7 days): lesser extent of increased cell death
- Cell proliferation ([1]; 50 nM rapamycin, 1 mM metformin, or both, 6-7 days): decreased proliferation
- Cytokine production (IFNγ, TNFα and IL-17A) upon re-stimulation [1]: neither rapamycin or metformin treatment altered the cytokine production
- Cell death / survival and inhibition of cell proliferation of CD4+ TM cells [2]: comparable effect, or even worse, than rapamycin
- Expansion of CBir1Tg CD4+ cells after antigen challenge (absolute numbers in spleen) [3]: no inhibitory result
- Inhibitory effect on the mTOR pathway ([4]; 1 mM metformin alone): no inhibitory effect

Compound: MVVQHNLRAMNANRMLGIT [A4 Fla3 p1-19, Lachnospiraceae A4 Fla3 flagellin peptide 1-19]
- EC50 Ratio (DR0701 (HLA-DR7)): 2.5
- EC50 Ratio (DR1101 (HLA-DR11)): 0.2
- EC50 Ratio (DR1501 (HLA-DR15)): 0.32

Compound: MVVQHNLRAMNSNRMLGITQ [FlaX p1-20, Lachnospiraceae FlaX flagellin peptide 1-20]
- EC50 Ratio (DR1501 (HLA-DR15)): 0.33

Compound: CO[C@H]1C[C@@H]2CC[C@@H](C)[C@@](O)(O2)C(=O)C(=O)N2CCCC[C@H]2C(=O)O[C@H]([C@H](C)C[C@@H]2CC[C@@H](O)[C@H](OC)C2)CC(=O)[C@H](C)/C=C(\C)[C@@H](O)[C@@H](OC)C(=O)[C@H](C)C[C@H](C)/C=C/C=C/C=C/1C [rapamycin]
- Cytokine production (IFNγ, TNFα and IL-17A) upon re-stimulation [1]: no effect
- Reduction of phosphorylation of S6K compared to antigen alone ([4]; 50 nM rapamycin, 6 hours): ~50%
- Reduction of phosphorylation of S6 kinase (S6K) (S6 kinase (S6K)): roughly 60%
- Reduction of cell proliferation ([5]; 100 nM rapamycin, in presence of cognate antigen MEP1, 90 hrs): roughly 10 fold
- Increase of Treg cells in percentage ([5]; MEP1 and rapamycin vs MEP1 alone): 20 fold

Compound: MATEMVKYSNANILSQAGQ [CBir1 p456-475]
- EC50 Ratio (DR0701 (HLA-DR7)): 3.7
- EC50 Ratio (DR1501 (HLA-DR15)): 0.32
